In patent publication US4235911A, “Hydantoin derivatives” (Pfizer Inc., priority 1979, dated 1980):
pIC50: −log10 of the molar value.

Key:
aldose reductase = biological target: T1, aldose reductase (Bos taurus, UniProt P16116); experiment: inhibition of isolated aldose reductase enzyme activity (procedure of S. Hayman et al. as modified by K. Sestanj et al.); assay type: biochemical, calf; conditions: for pIC50: partially purified aldose reductase from calf lens, 50% reduction in enzyme activity, read-out: Concentration Level (IC50); for aldose reductase inhibitory activity: statement in words
T1 construct: partially purified aldose reductase enzyme obtained from calf lens; from tissue; host or cells: calf lens
Method: (§1) The activity of the compounds of the present invention, as agents for the control of chronic diabetic complications, is determined by their ability to successfully pass one or more of the following standard biological and/or pharmacological tests, viz., (1) measuring their ability to inhibit the enzyme activity of isolated aldose reductase; (2) measuring their ability to reduce or inhibit sorbitol accumulation in the sciatic nerve of acutely streptozotocinized (i.e., diabetic) rats; (3) measuring their ability to reverse already-elevated sorbitol levels in the sciatic nerve and lens of chronic streptozotocin-induced diabetic rats; (4) measuring their ability to prevent or inhibit galactitol formation in the lens of acutely galactosemic rats, and (5) measuring their ability to delay cataract formation and reduce the severity of lens opacities in chronic galactosemic rats. The following tetrahydroquinoline-derived spiro-hydantoin compounds of Examples 1-4, respectively, were tested for their ability to reduce or inhibit aldose reductase enzyme activity via the procedure of S. Hayman et al., as described in the Journal of Biological Chemistry, Vol. 240, p. 877 (1965) and as modified by K. Sestanj et al. in U.S. Pat. No. 3,821,383. In every case, the substrate employed was partially purified aldose reductase enzyme obtained from calf lens.

[1] = system: sorbitol levels in the lens and sciatic nerve of diabetic subjects; experiment: lowering of sorbitol levels in the lens and nerve of diabetic subjects; assay type: in vivo; conditions: statement in words
Method: as §1, with “rats.” for “rats. The following tetrahydroquinoline-derived spiro-hydantoin compounds of Examples 1-4, respectively, were tested for their ability to reduce or inhibit aldose reductase enzyme activity via the procedure of S. Hayman et al., as described in the Journal of Biological Chemistry, Vol. 240, p. 877 (1965) and as modified by K. Sestanj et al. in U.S. Pat. No. 3,821,383. In every case, the substrate employed was partially purified aldose reductase enzyme obtained from calf lens.”

[2] = system: galactitol levels in the lens of galactosemic subjects; experiment: lowering of galactitol levels in the lens of galactosemic subjects; assay type: in vivo; conditions: statement in words
Method: as §1, with “rats.” for “rats. The following tetrahydroquinoline-derived spiro-hydantoin compounds of Examples 1-4, respectively, were tested for their ability to reduce or inhibit aldose reductase enzyme activity via the procedure of S. Hayman et al., as described in the Journal of Biological Chemistry, Vol. 240, p. 877 (1965) and as modified by K. Sestanj et al. in U.S. Pat. No. 3,821,383. In every case, the substrate employed was partially purified aldose reductase enzyme obtained from calf lens.”

[3] = system: formation of sorbitol levels in diabetic rats; experiment: inhibition of formation of sorbitol levels in diabetic rats, oral; assay type: in vivo, rat; conditions: 5.0 mg./kg. to 25 mg./kg.
Source text: (§2) As previously indicated, the tetrahydroquinoline-derived spiro-hydantoin compounds of this invention are all readily adapted to therapeutic use as aldose reductase inhibitors for the control of chronic diabetic complications, in view of their ability to reduce lens sorbitol levels in diabetic subjects to a statistically significant degree. […] The other compounds of this invention also cause similar results. Furthermore, all the herein described compounds of this invention can be administered by either the oral or parenteral routes of administration, for the present purposes at hand, without causing any significant untoward pharmacological side reactions to occur in the subject to whom they are so administered. In general, these compounds are ordinarily administered in dosages ranging from about 0.25 mg. to about 25 mg. per kg. of body weight per day, although variations will necessarily occur depending upon the weight and condition of the subject being treated and the particular route of administration chosen.

[4] = toxic side effects in diabetic rats, oral; assay type: in vivo, rat; conditions: 5.0 mg./kg. to 25 mg./kg.
Source text: as §2

O=C1NC(=O)C2(CCNc3cc(Cl)ccc32)N1 (stereo not drawn) [Product of Example 3, 7'-chloro-1',2',3',4'-tetrahydro-spiro-[imidazolidine-4,4'-quinoline]-2,5-dione]
pIC50 (aldose reductase): 5.00
aldose reductase inhibitory activity (aldose reductase): highly potent
lowering sorbitol levels in the lens and sciatic nerve of diabetic subjects [1]: extremely effective
lowering galactitol levels in the lens of galactosemic subjects [2]: extremely effective

CN1CCC2(NC(=O)NC2=O)c2cccnc21 (stereo not drawn) [Product of Example 2, 1'-methyl-1',2',3',4'-tetrahydro-spiro-[imidazolidine-4,4'-pyrido(2,3-b)pyridine]-2,5-dione]
pIC50 (aldose reductase): 5.00
aldose reductase inhibitory activity (aldose reductase): highly potent
lowering sorbitol levels in the lens and sciatic nerve of diabetic subjects [1]: extremely effective
lowering galactitol levels in the lens of galactosemic subjects [2]: extremely effective

O=C1NC(=O)C2(CCNc3ccc(Cl)cc32)N1 (stereo not drawn) [Product of Example 4, 6'-chloro-1',2',3',4'-tetrahydro-spiro-[imidazolidine-4,4'-quinoline]-2,5-dione]
pIC50 (aldose reductase): 6.00
aldose reductase inhibitory activity (aldose reductase): highly potent
control (i.e., inhibit) the formation of sorbitol levels in diabetic rats [3]: to a significantly high degree
lowering sorbitol levels in the lens and sciatic nerve of diabetic subjects [1]: extremely effective
lowering galactitol levels in the lens of galactosemic subjects [2]: extremely effective
toxic side effects [4]: without showing any substantial signs of toxic side effects

CN1CCC2(NC(=O)NC2=O)c2ccccc21.Cl (stereo not drawn) [Product of Example 1, 1'-methyl-1',2',3',4'-tetrahydro-spiro-[imidazolidine-4,4'-quinoline]-2,5-dione hydrochloride]
pIC50 (aldose reductase): 4.30
aldose reductase inhibitory activity (aldose reductase): highly potent
lowering sorbitol levels in the lens and sciatic nerve of diabetic subjects [1]: extremely effective
lowering galactitol levels in the lens of galactosemic subjects [2]: extremely effective
